ChEMBL document CHEMBL4680224, “Discovery of pyridine tetrahydroisoquinoline thiohydantoin derivatives with low blood-brain barrier penetration as the androgen receptor antagonists” (Eur J Med Chem, 2020)

Tests used:
DU-145 = assay: Antiproliferative activity against human DU-145 cells assessed as reduction in cel viability after 72 hrs by MTT assay; assay type: functional, cell-based; settings: DU-145, 72 h
LNCaP = assay: Antiproliferative activity against human LNCaP cells assessed as reduction in cel viability after 72 hrs by MTT assay; assay type: functional, cell-based

Row | SMILES | IC50 (DU-145) [µM] | IC50 (LNCaP) [µM]
1 | CCCNC(=O)c1cc2c(cc1F)CC1C(=O)N(c3cnc(C#N)c(C(F)(F)F)c3)C(=S)N1C2 (centres undefined) | 92.5 | 20.1
2 | CNC(=O)c1cc2c(cc1F)CC1C(=O)N(c3cnc(C#N)c(C(F)(F)F)c3)C(=S)N1C2 (centres undefined) | 67.4 | 43.8
3 | CCCCS(=O)(=O)Nc1ccc2c(c1)CN1C(=S)N(c3cnc(C#N)c(C(F)(F)F)c3)C(=O)C1C2 (centres undefined) | 84.4 | 84.1
4 | CCC(=O)Nc1ccc2c(c1)CCC1C(=O)N(c3cnc(C#N)c(C(F)(F)F)c3)C(=S)N21 (centres undefined) | > 100 | 39.9
5 | CCNC(=O)c1cc2c(cc1F)CC1C(=O)N(c3cnc(C#N)c(C(F)(F)F)c3)C(=S)N1C2 (centres undefined) | 91.4 | 32.3
6 | CCCCNC(=O)c1ccc2c(c1)CN1C(=S)N(c3cnc(C#N)c(C(F)(F)F)c3)C(=O)C1C2 (centres undefined) | 89.4 | 11.6
7 | CC(O)CNC(=O)c1cc2c(cc1F)CC1C(=O)N(c3cnc(C#N)c(C(F)(F)F)c3)C(=S)N1C2 (centres undefined) | 72.2 | 47.5
8 | CCOC(=O)CCCOc1ccc2c(c1)CN1C(=S)N(c3cnc(C#N)c(C(F)(F)F)c3)C(=O)C1C2 (centres undefined) | > 100 | 17
9 | CCC(=O)Nc1ccc2c(c1)N1C(=S)N(c3cnc(C#N)c(C(F)(F)F)c3)C(=O)C1CC2 (centres undefined) | > 100 | 48.8
10 | CC(=O)Nc1ccc2c(c1)CN1C(=S)N(c3cnc(C#N)c(C(F)(F)F)c3)C(=O)C1C2 (centres undefined) | 54.1 | 23.1
11 | CCOC(=O)Nc1ccc2c(c1)CCC1C(=O)N(c3cnc(C#N)c(C(F)(F)F)c3)C(=S)N21 (centres undefined) | > 100 | 23.7
12 | CS(=O)(=O)Nc1ccc2c(c1)CN1C(=S)N(c3cnc(C#N)c(C(F)(F)F)c3)C(=O)C1C2 (centres undefined) | > 100 | 90.2
13 | N#Cc1ncc(N2C(=O)C3Cc4cc(F)c([N+](=O)[O-])cc4CN3C2=S)cc1C(F)(F)F (centres undefined) | 83.4 | 29
14 | CCCC(=O)Nc1ccc2c(c1)N1C(=S)N(c3cnc(C#N)c(C(F)(F)F)c3)C(=O)C1CC2 (centres undefined) | 97.8 | 46
15 | COC(=O)c1cc2c(cc1F)CC1C(=O)N(c3cnc(C#N)c(C(F)(F)F)c3)C(=S)N1C2 (centres undefined) | 86.2 | 55.5
16 | CCNC(=O)c1ccc2c(c1)CN1C(=S)N(c3cnc(C#N)c(C(F)(F)F)c3)C(=O)C1C2 (centres undefined) | 53.2 | 29.3
17 | CCCCOc1ccc2c(c1)CN1C(=S)N(c3cnc(C#N)c(C(F)(F)F)c3)C(=O)C1C2 (centres undefined) | > 100 | 20
18 | CCC(=O)Nc1ccc2c(c1)CN1C(=S)N(c3cnc(C#N)c(C(F)(F)F)c3)C(=O)C1C2 (centres undefined) | 81.1 | 22.9

Row | SMILES | IC50 (DU-145) [µM] | IC50 (LNCaP) [µM]
19 | CCOC(=O)Nc1ccc2c(c1)CN1C(=S)N(c3cnc(C#N)c(C(F)(F)F)c3)C(=O)C1C2 (centres undefined) | > 100 | 12.2
20 | N#Cc1ncc(N2C(=O)C3Cc4ccc(N)cc4CN3C2=S)cc1C(F)(F)F (centres undefined) | > 100 | 44.7
21 | CCCC(=O)Nc1cc2c(cc1F)CC1C(=O)N(c3cnc(C#N)c(C(F)(F)F)c3)C(=S)N1C2 (centres undefined) | > 100 | 27.9
22 | CCCNC(=O)c1ccc2c(c1)CN1C(=S)N(c3cnc(C#N)c(C(F)(F)F)c3)C(=O)C1C2 (centres undefined) | 90.4 | 18.1
23 | CCCC(=O)Nc1ccc2c(c1)CCC1C(=O)N(c3cnc(C#N)c(C(F)(F)F)c3)C(=S)N21 (centres undefined) | 89.7 | 32.5
24 | N#Cc1ncc(N2C(=O)C3Cc4ccc(C(=O)NCCO)cc4CN3C2=S)cc1C(F)(F)F (centres undefined) | 83.9 | 29.1
25 | CCCCS(=O)(=O)Nc1ccc2c(c1)CCC1C(=O)N(c3cnc(C#N)c(C(F)(F)F)c3)C(=S)N21 (centres undefined) | 90.1 | 54.7
26 | COc1c(Br)cc2c(c1Br)CN1C(=S)N(c3cnc(C#N)c(C(F)(F)F)c3)C(=O)C1C2 (centres undefined) | 96.3 | 85.9
27 | CS(=O)(=O)Nc1cc2c(cc1F)CC1C(=O)N(c3cnc(C#N)c(C(F)(F)F)c3)C(=S)N1C2 (centres undefined) | > 100 | 79
28 | N#Cc1ncc(N2C(=O)C3Cc4cc(F)c(C(=O)NC5CCCCC5)cc4CN3C2=S)cc1C(F)(F)F (centres undefined) | 67.6 | 84.7
29 | CC(=O)Nc1ccc2c(c1)N1C(=S)N(c3cnc(C#N)c(C(F)(F)F)c3)C(=O)C1CC2 (centres undefined) | > 100 | 89.7
30 | CC(=O)Nc1cc2c(cc1F)CC1C(=O)N(c3cnc(C#N)c(C(F)(F)F)c3)C(=S)N1C2 (centres undefined) | > 100 | 28.3
31 | N#Cc1ncc(N2C(=O)C3Cc4ccc([N+](=O)[O-])cc4CN3C2=S)cc1C(F)(F)F (centres undefined) | > 100 | 75.7
32 | CC(=O)Nc1ccc2c(c1)CCC1C(=O)N(c3cnc(C#N)c(C(F)(F)F)c3)C(=S)N21 (centres undefined) | > 100 | 41.2
33 | CC(CO)NC(=O)c1ccc2c(c1)CN1C(=S)N(c3cnc(C#N)c(C(F)(F)F)c3)C(=O)C1C2 (centres undefined) | 88 | 44.9
34 | CS(=O)(=O)Nc1ccc2c(c1)CCC1C(=O)N(c3cnc(C#N)c(C(F)(F)F)c3)C(=S)N21 (centres undefined) | > 100 | > 100
35 | CC(CO)NC(=O)c1cc2c(cc1F)CC1C(=O)N(c3cnc(C#N)c(C(F)(F)F)c3)C(=S)N1C2 (centres undefined) | 71.3 | 34.2

Further lines, results first:

Row | IC50 (DU-145) [µM] | IC50 (LNCaP) [µM] | SMILES
36 | > 100 | 21.6 | N#Cc1ncc(N2C(=O)C3Cc4ccccc4CN3C2=S)cc1C(F)(F)F (centres undefined)
37 | > 100 | > 100 | N#Cc1ncc(N2C(=O)C3Cc4ccc(C(=O)O)cc4CN3C2=S)cc1C(F)(F)F (centres undefined)
38 | > 100 | 102 | CCCCS(=O)(=O)Nc1cc2c(cc1F)CC1C(=O)N(c3cnc(C#N)c(C(F)(F)F)c3)C(=S)N1C2 (centres undefined)
39 | > 100 | 25.9 | COc1ccc2c(c1)CN1C(=S)N(c3cnc(C#N)c(C(F)(F)F)c3)C(=O)C1C2 (centres undefined)
40 | > 100 | 32.1 | N#Cc1ncc(N2C(=O)C3Cc4cc(F)c(N)cc4CN3C2=S)cc1C(F)(F)F (centres undefined)
41 | > 100 | > 100 | CS(=O)(=O)Nc1ccc2c(c1)N1C(=S)N(c3cnc(C#N)c(C(F)(F)F)c3)C(=O)C1CC2 (centres undefined)
42 | > 100 | 34.2 | CCCC(=O)Nc1ccc2c(c1)CN1C(=S)N(c3cnc(C#N)c(C(F)(F)F)c3)C(=O)C1C2 (centres undefined)
43 | 83.6 | 36.7 | CNC(=O)c1ccc2c(c1)CN1C(=S)N(c3cnc(C#N)c(C(F)(F)F)c3)C(=O)C1C2 (centres undefined)
44 | 91.7 | 65.9 | CCOc1ccc2c(c1)CN1C(=S)N(c3cnc(C#N)c(C(F)(F)F)c3)C(=O)C1C2 (centres undefined)
45 | > 100 | > 100 | N#Cc1ncc(N2C(=O)C3Cc4cc(F)c(C(=O)O)cc4CN3C2=S)cc1C(F)(F)F (centres undefined)
46 | 75.5 | 58.4 | COC(=O)c1ccc2c(c1)CN1C(=S)N(c3cnc(C#N)c(C(F)(F)F)c3)C(=O)C1C2 (centres undefined)
47 | 92.4 | 72.3 | N#Cc1ncc(N2C(=O)C3Cc4ccc(C(=O)NC5CCCCC5)cc4CN3C2=S)cc1C(F)(F)F (centres undefined)
48 | 83.9 | 48.7 | CCCCS(=O)(=O)Nc1ccc2c(c1)N1C(=S)N(c3cnc(C#N)c(C(F)(F)F)c3)C(=O)C1CC2 (centres undefined)
49 | 81.1 | 60.4 | N#Cc1ncc(N2C(=O)C3Cc4cc(Br)c(O)c(Br)c4CN3C2=S)cc1C(F)(F)F (centres undefined)
50 | > 100 | 27.7 | CCC(=O)Nc1cc2c(cc1F)CC1C(=O)N(c3cnc(C#N)c(C(F)(F)F)c3)C(=S)N1C2 (centres undefined)
51 | 93.8 | 16.3 | CCCCNC(=O)c1cc2c(cc1F)CC1C(=O)N(c3cnc(C#N)c(C(F)(F)F)c3)C(=S)N1C2 (centres undefined)
52 | 90.3 | 35.7 | CCOC(=O)Nc1ccc2c(c1)N1C(=S)N(c3cnc(C#N)c(C(F)(F)F)c3)C(=O)C1CC2 (centres undefined)
